Columns and labels:
[1] = system: H460 (NRF2 pathway mutant cell line with high AKR1C3 expression); experiment: In vitro cell proliferation assay (CellTiter-Glo), H460; assay type: cell-based; conditions: Homo sapiens, NCI-H460, 72 h; H460 cells, 3 days, CellTiter-Glo, top concentration 10 μM; read-out: H460 Qualified absolute AC50
Summary of the method: (§1)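 Cells seeded day 1 (H460 800/well, Hara 2000/well) in RPMI-1640 with 10% FBS; compounds added day 2 as 8-point 1:5 dilutions from 10 μM top. After 3 days at 37 °C, viability read by CellTiter-Glo luminescence, normalized to DMSO and MG132 (30 μM) controls to derive percentage activity and AC50.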

[2] = system: Hara (NRF2 pathway wild type cell line with low AKR1C3 expression); experiment: In vitro cell proliferation assay (CellTiter-Glo), Hara; assay type: cell-based; conditions: 72 h; Hara cells, 3 days, CellTiter-Glo, top concentration 10 μM; read-out: HARA Qualified absolute AC50
Summary of the method: as §1

SMILES	AC50 [1] [nM]	AC50 [2] [µM]
O=C1CC2(CCN(C(=O)NCc3ccc(F)c(NCCO)c3)CC2)Nc2ccc(F)cc21 [Example 78, 6′-fluoro-N-(4-fluoro-3-((2-hydroxyethyl)amino)benzyl)-4′-oxo-3′,4′-dihydro-1′H-spiro[piperidine-4,2′-quinoline]-1-carboxamide]	321	> 10
Nc1cc(F)c(CNC(=O)N2CCC3(CC2)CC(=O)c2cc(F)ccc2N3)c(F)c1 [Example 80, N-(4-amino-2,6-difluorobenzyl)-6′-fluoro-4′-oxo-3′,4′-dihydro-1′H-spiro[piperidine-4,2′-quinoline]-1-carboxamide]	347	> 10
CN1c2ccc(F)cc2C(=O)CC12CCN(C(=O)NCc1ccc(F)c(C(=O)NCCO)c1)CC2 [Example 82, 6′-fluoro-N-(4-fluoro-3-((2-hydroxyethyl)carbamoyl)benzyl)-1′-methyl-4′-oxo-3′,4′-dihydro-1′H-spiro[piperidine-4,2′-quinoline]-1-carboxamide]	356	> 10
O=C1CC2(CCN(C(=O)NCc3ccc(F)c(CO)c3)CC2)Nc2ccc(F)cc21 [Example 83, 6′-fluoro-N-(4-fluoro-3-(hydroxymethyl)benzyl)-4′-oxo-3′,4′-dihydro-1′H-spiro[piperidine-4,2′-quinoline]-1-carboxamide]	361	> 10
Nc1c(F)ccc(CNC(=O)N2CCC3(CC2)CC(=O)c2cc(F)ccc2N3)c1F [Example 84, N-(3-amino-2,4-difluorobenzyl)-6′-fluoro-4′-oxo-3′,4′-dihydro-1′H-spiro[piperidine-4,2′-quinoline]-1-carboxamide]	367	> 10
C/C=C/CN1c2ccc(F)cc2C(=O)CC12CCN(C(=O)NCc1ccc(F)cc1)CC2 [Example 85, (E)-1′-(but-2-en-1-yl)-6′-fluoro-N-(4-fluorobenzyl)-4′-oxo-3′,4′-dihydro-1′H-spiro[piperidine-4,2′-quinoline]-1-carboxamide]	371	9.49
CN1c2ccc(F)cc2C(=O)CC12CCN(C(=O)NCc1ccc(F)cc1NCCO)CC2 [Example 86, 6′-fluoro-N-(4-fluoro-2-((2-hydroxyethyl)amino)benzyl)-1′-methyl-4′-oxo-3′,4′-dihydro-1′H-spiro[piperidine-4,2′-quinoline]-1-carboxamide]	379	> 10
Nc1ccc(CNC(=O)N2CCC3(CC2)CC(=O)c2cc(F)ccc2N3)cc1Cl [Example 87, N-(4-amino-3-chlorobenzyl)-6′-fluoro-4′-oxo-3′,4′-dihydro-1′H-spiro[piperidine-4,2′-quinoline]-1-carboxamide]	388	> 10
Nc1ccc(CNC(=O)N2CCC3(CC2)CC(=O)c2cc(F)ccc2N3)cc1 [Example 89, N-(4-aminobenzyl)-6′-fluoro-4′-oxo-3′,4′-dihydro-1′H-spiro[piperidine-4,2′-quinoline]-1-carboxamide]	436	> 10
CN1c2ccc(F)cc2C(=O)CC12CCN(C(=O)NCc1ccc(F)c(NCCO)c1F)CC2 [Example 91, N-(2,4-difluoro-3-((2-hydroxyethyl)amino)benzyl)-6′-fluoro-1′-methyl-4′-oxo-3′,4′-dihydro-1′H-spiro[piperidine-4,2′-quinoline]-1-carboxamide]	451	> 10
CC(O)c1cc(CNC(=O)N2CCC3(CC2)CC(=O)c2cc(F)ccc2N3C)ccc1F (stereo not shown) [Example 92, 6′-fluoro-N-(4-fluoro-3-(1-hydroxyethyl)benzyl)-1′-methyl-4′-oxo-3′,4′-dihydro-1′H-spiro[piperidine-4,2′-quinoline]-1-carboxamide]	467	> 10
Cn1ncc(Cl)c1CNC(=O)N1CCC2(CC1)CC(=O)c1cc(F)ccc1N2 [Example 93, N-((4-chloro-1-methyl-1H-pyrazol-5-yl)methyl)-6′-fluoro-4′-oxo-3′,4′-dihydro-1′H-spiro[piperidine-4,2′-quinoline]-1-carboxamide]	5730	> 10
C[C@@H](O)CNC(=O)c1cc(CNC(=O)N2CCC3(CC2)CC(=O)c2cc(F)ccc2N3C)ccc1F [Example 94, (R)-6′-fluoro-N-(4-fluoro-3-((2-hydroxypropyl)carbamoyl)benzyl)-1′-methyl-4′-oxo-3′,4′-dihydro-1′H-spiro[piperidine-4,2′-quinoline]-1-carboxamide]	471	9.49
Nc1cc(CNC(=O)N2CCC3(CC2)CC(=O)c2cc(F)ccc2N3)ccc1F [Example 95, N-(3-amino-4-fluorobenzyl)-6′-fluoro-4′-oxo-3′,4′-dihydro-1′H-spiro[piperidine-4,2′-quinoline]-1-carboxamide]	485	> 10
Nc1ccc(CNC(=O)N2CCC3(CC2)CC(=O)c2cc(F)ccc2N3)c(F)c1 [Example 98, N-(4-amino-2-fluorobenzyl)-6′-fluoro-4′-oxo-3′,4′-dihydro-1′H-spiro[piperidine-4,2′-quinoline]-1-carboxamide]	498	> 10
COCCNc1cc(CNC(=O)N2CCC3(CC2)CC(=O)c2cc(F)ccc2N3)ccc1F [Example 99, 6′-fluoro-N-(4-fluoro-3-((2-methoxyethyl)amino)benzyl)-4′-oxo-3′,4′-dihydro-1′H-spiro[piperidine-4,2′-quinoline]-1-carboxamide]	507	> 10
O=C(NCC(F)(F)F)c1cc(CNC(=O)N2CCC3(CC2)CC(=O)c2cc(F)ccc2N3)ccc1F [Example 101, 6′-fluoro-N-(4-fluoro-3-((2,2,2-trifluoroethyl)carbamoyl)benzyl)-4′-oxo-3′,4′-dihydro-1′H-spiro[piperidine-4,2′-quinoline]-1-carboxamide]	528	> 10
COC1CN(c2cc(CNC(=O)N3CCC4(CC3)CC(=O)c3cc(F)ccc3N4)ccc2F)C1 [Example 102, 6′-fluoro-N-(4-fluoro-3-(3-methoxyazetidin-1-yl)benzyl)-4′-oxo-3′,4′-dihydro-1′H-spiro[piperidine-4,2′-quinoline]-1-carboxamide]	555	3.72
NC(=O)Cc1cc(CNC(=O)N2CCC3(CC2)CC(=O)c2cc(F)ccc2N3)ccc1F [Example 103, N-(3-(2-amino-2-oxoethyl)-4-fluorobenzyl)-6′-fluoro-4′-oxo-3′,4′-dihydro-1′Hspiro[piperidine-4,2′-quinoline]-1-carboxamide]	558	> 10
Nc1ccc(CNC(=O)N2CCC3(CC2)CC(=O)c2cc(F)ccc2N3)c(C(F)(F)F)c1 [Example 104, N-(4-amino-2-(trifluoromethyl)benzyl)-6′-fluoro-4′-oxo-3′,4′-dihydro-1′H-spiro[piperidine-4,2′-quinoline]-1-carboxamide]	573	> 10
O=C(NC1COC1)c1cc(CNC(=O)N2CCC3(CC2)CC(=O)c2cc(F)ccc2N3)ccc1F [Example 105, 6′-fluoro-N-(4-fluoro-3-(oxetan-3-ylcarbamoyl)benzyl)-4′-oxo-3′,4′-dihydro-1′H-spiro[piperidine-4,2′-quinoline]-1-carboxamide]	580	> 10
O=C1CC2(CCN(C(=O)NCc3cnoc3)CC2)Nc2ccc(F)cc21 [Example 107, 6′-fluoro-N-(isoxazol-4-ylmethyl)-4′-oxo-3′,4′-dihydro-1′H-spiro[piperidine-4,2′-quinoline]-1-carboxamide]	612	> 10
O=C1CC2(CCN(C(=O)NCc3ccc(OC(F)F)c(F)c3)CC2)Nc2c(F)cc(F)cc21 [Example 108, N-(4-(difluoromethoxy)-3-fluorobenzyl)-6′,8′-difluoro-4′-oxo-3′,4′-dihydro-1′H-spiro[piperidine-4,2′-quinoline]-1-carboxamide]	646	3.18
NC(=O)c1c(F)ccc(CNC(=O)N2CCC3(CC2)CC(=O)c2cc(F)ccc2N3)c1F [Example 109, N-(3-carbamoyl-2,4-difluorobenzyl)-6′-fluoro-4′-oxo-3′,4′-dihydro-1′H-spiro[piperidine-4,2′-quinoline]-1-carboxamide]	690	> 10
Nc1ccc(CNC(=O)N2CCC3(CC2)CC(=O)c2cc(F)ccc2N3)c(Cl)c1 [Example 111, N-(4-amino-2-chlorobenzyl)-6′-fluoro-4′-oxo-3′,4′-dihydro-1′H-spiro[piperidine-4,2′-quinoline]-1-carboxamide]	733	> 10
Nc1ccc(CNC(=O)N2CCC3(CC2)CC(=O)c2cc(F)ccc2N3)cc1C(F)(F)F [Example 112, N-(4-amino-3-(trifluoromethyl)benzyl)-6′-fluoro-4′-oxo-3′,4′-dihydro-1′H-spiro[piperidine-4,2′-quinoline]-1-carboxamide]	783	> 10
COc1cc(F)ccc1CNC(=O)N1CCC2(CC1)CC(=O)c1cc(F)ccc1N2 [Example 114, 6′-fluoro-N-(4-fluoro-2-methoxybenzyl)-4′-oxo-3′,4′-dihydro-1′H-spiro[piperidine-4,2′-quinoline]-1-carboxamide]	913	4.43
COc1cc(CNC(=O)N2CCC3(CC2)CC(=O)c2cc(F)cc(F)c2N3)ccn1 [Example 115, 6′,8′-difluoro-N-((2-methoxypyridin-4-yl)methyl)-4′-oxo-3′,4′-dihydro-1′H-spiro[piperidine-4,2′-quinoline]-1-carboxamide]	930	> 10
Cc1cc(N)ccc1CNC(=O)N1CCC2(CC1)CC(=O)c1cc(F)ccc1N2 [Example 116, N-(4-amino-2-methylbenzyl)-6′-fluoro-4′-oxo-3′,4′-dihydro-1′H-spiro[piperidine-4,2′-quinoline]-1-carboxamide]	935	> 10
